Assay results published in publication PMC8911550, “The Effects of Side-Chain Configurations of a Retro–Inverso-Type Inhibitor on the Human T-Cell Leukemia Virus (HTLV)-1 Protease” (Molecules, 2022).
Numbered stars: 1 amine (or outer) side, 2 acyl side, 3 side chain; on linkers, the order of the positions; unused ones are H or OH. Square brackets hold non-standard residues; d marks the D form. Ends that are not written are not given here. Peptide text beside a SMILES is read from it. X1 = CC(C)C[C@H](C(=O)[*:2])[C@H](O)C[C@H]1CCCN1[*:1]; d(aIle) = CC[C@H](C)[C@@H](N)C(=O)O; aIle = CC[C@@H](C)[C@H](N)C(=O)O

Columns and labels:
HTLV-1 protease = details: ref [20]; cited from earlier work
[1] = target: T1, recombinant HTLV-1 protease (1-116, L40I) (Human T-cell leukemia virus 1, UniProt P10274, L489I); assay: biochemical; format: biochemical, human T-cell leukemia virus type 1 (HTLV-1); details: for inhibitory activity relative to RI-inhibitor 3: effect of D-allo-Ile replacement, RI-inhibitor 3 as reference, recombinant protease
T1 construct: examined using the recombinant HTLV-1 protease (1-116, L40I) and a substrate dodecapeptide; made in house; host or cells: E. coli BL21(DE3)
Experimental: The reaction mixture was directly analyzed by analytical HPLC with a C18 reversed-phase column. Each IC50 value of the RI-type inhibitor was obtained from the sigmoidal dose–response curve (Figure S6) calculated from the decrease in substrate concentration.
The reaction mixture was analyzed on a Cosmosil 5C18-ARII column (4.6 × 150 mm), employing a linear gradient of CH3CN (10–40%, 30 min) in aqueous 0.1% TFA. Each IC50 value was obtained from a sigmoidal dose–response curve obtained from the decrease in the substrate in the reaction mixture (Figure S3). Each experiment was repeated three times.

[2] = tested on: recombinant HTLV-1 protease; assay: Cleavage of allo-Ile-containing substrates by recombinant HTLV-1 protease, analytical HPLC; format: biochemical, human T-cell leukemia virus type 1 (HTLV-1); details: decrease in substrate by analytical HPLC, Figure 3
Experimental: Each synthesized substrate (4–6) was then treated with the recombinant HTLV-1 protease, and the decrease in each substrate level was monitored using analytical HPLC [15].
Figure 3 Cleavage reaction of the substrates containing allo-Ile residues by the HTLV-1 protease: blue, original substrate; orange, substrate 4; gray, substrate 5; yellow, substrate 6.

T1 sequence (P10274 450-565 L489I): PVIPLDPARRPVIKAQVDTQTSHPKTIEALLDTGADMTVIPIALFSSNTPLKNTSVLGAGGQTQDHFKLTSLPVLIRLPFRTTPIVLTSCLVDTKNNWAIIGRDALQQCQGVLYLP

| Molecule | IC50 [1] [µM] | inhibitory activity relative to RI-inhibitor 3 [1] | cleavage rate compared with original substrate, in words [2] | also measured |
| --- | --- | --- | --- | --- |
| C[C@@H](NC(=O)[C@H]1N(C(=O)[C@@H](O)[C@H](Cc2ccccc2)NC(=O)[C@@H](NC(=O)[C@@H](NC(=O)CN2CCOCC2)c2ccccc2)C(C)(C)C)CSC1(C)C)C(C)(C)C [KNI-10729] | – | – | – | inhibition at 50 nM (HTLV-1 protease): 79% |
| CC[C@@H](C)[C@@H](NC(=O)[C@@H](CC(C)C)[C@H](O)C[C@H]1CCCN1C(=O)[C@H](NC(C)=O)[C@H](C)CC)C(=O)N[C@@H](C(=O)N1CCC[C@@H]1C(=O)N1CCC[C@@H]1C(N)=O)C(C)C [RI-inhibitor 3] (Ac-[dI][X1][dI][dV][dP][dP]-NH2) | 240 | – | – | – |
| CC[C@@H](C)[C@@H](NC(=O)[C@@H](CC(C)C)[C@H](O)C[C@H]1CCCN1C(=O)[C@H](NC(C)=O)[C@@H](C)CC)C(=O)N[C@@H](C(=O)N1CCC[C@@H]1C(=O)N1CCC[C@@H]1C(N)=O)C(C)C [RI-inhibitor 8] (Ac-[d(aIle)][X1][dI][dV][dP][dP]-NH2) | 110 | doubled the inhibitory activity | – | – |
| CC[C@@H](C)[C@@H](NC(C)=O)C(=O)N1CCC[C@@H]1C[C@@H](O)[C@H](CC(C)C)C(=O)N[C@@H](C(=O)N[C@@H](C(=O)N1CCC[C@@H]1C(=O)N1CCC[C@@H]1C(N)=O)C(C)C)[C@@H](C)CC [RI-inhibitor 9] (Ac-[dI][X1][d(aIle)][dV][dP][dP]-NH2) | 130 | doubled the inhibitory activity | – | – |
| CC[C@H](C)[C@@H](NC(=O)[C@@H](CC(C)C)[C@H](O)C[C@H]1CCCN1C(=O)[C@H](NC(C)=O)[C@@H](C)CC)C(=O)N[C@@H](C(=O)N1CCC[C@@H]1C(=O)N1CCC[C@@H]1C(N)=O)C(C)C [RI-inhibitor 10] (Ac-[d(aIle)][X1][d(aIle)][dV][dP][dP]-NH2) | 85 | tripled the inhibitory activity | – | – |
| substrate 4: substrate 4 containing an allo-Ile residue at the prime site (9-allo-Ile) (KGPPVILP[aIle]QAP-NH2; N-terminus assumed; SMILES CC[C@@H](C)[C@H](NC(=O)[C@@H]1CCCN1C(=O)[C@H](CC(C)C)NC(=O)[C@@H](NC(=O)[C@@H](NC(=O)[C@@H]1CCCN1C(=O)[C@@H]1CCCN1C(=O)CNC(=O)[C@@H](N)CCCCN)C(C)C)[C@@H](C)CC)C(=O)N[C@@H](CCC(N)=O)C(=O)N[C@@H](C)C(=O)N1CCC[C@H]1C(N)=O) | – | – | cleaved at a slightly lower rate than the original substrate | – |
| substrate 5: substrate 5 containing an allo-Ile residue at the non-prime site (6-allo-Ile) (KGPPV[aIle]LPIQAP-NH2; N-terminus assumed; SMILES CC[C@@H](C)[C@H](NC(=O)[C@@H](NC(=O)[C@@H]1CCCN1C(=O)[C@@H]1CCCN1C(=O)CNC(=O)[C@@H](N)CCCCN)C(C)C)C(=O)N[C@@H](CC(C)C)C(=O)N1CCC[C@H]1C(=O)N[C@H](C(=O)N[C@@H](CCC(N)=O)C(=O)N[C@@H](C)C(=O)N1CCC[C@H]1C(N)=O)[C@@H](C)CC) | – | – | clearly showed a lower cleavage rate than the original substrate | – |
| substrate 6: substrate 6 containing two allo-Ile residues at both sites (6,9-allo-Ile) (KGPPV[aIle]LP[aIle]QAP-NH2; N-terminus assumed; SMILES CC[C@@H](C)[C@H](NC(=O)[C@@H](NC(=O)[C@@H]1CCCN1C(=O)[C@@H]1CCCN1C(=O)CNC(=O)[C@@H](N)CCCCN)C(C)C)C(=O)N[C@@H](CC(C)C)C(=O)N1CCC[C@H]1C(=O)N[C@H](C(=O)N[C@@H](CCC(N)=O)C(=O)N[C@@H](C)C(=O)N1CCC[C@H]1C(N)=O)[C@H](C)CC) | – | – | clearly showed a lower cleavage rate than the original substrate | – |
